Test results taken from patent US20210315824A1, “PHARMACEUTICAL FORMULATIONS COMPRISING NITROCATECHOL DERIVATIVES AND METHODS OF MAKING THE SAME” (BIAL - PORTELA & CA, S.A., priority 2009, published 2021).

Assay: Bulk and tapped density of granules / API
Format: physicochemical
Conditions: API alone, prior to granulation and/or formulation
Description: It is within the ability of one of skill in the art to determine the bulk density of a compound or composition using methods generally accepted in the art. However, suitable methods include, for example, the European Pharmacopeia edition 6, Test 2.9.15 “apparent volume,” pages 285-286, EDQM, 2007, and USP 31, vol. 1, test <616> page 231-232, The United States Pharmacopeia Convention, 2008. Another example of a suitable method is described below:
Apparatus: • settling apparatus capable of producing in 1 minute 250±15 taps from a height of 3±0.2 mm. The support for the graduated cylinder with its holder, has a mass of 450±5 g • a 250 ml graduated cylinder (2 ml intervals) with a mass of 220±40 g
Method: Into a dry cylinder, introduce without compacting, 100.0 g (m g) of the test substance. […] Read the unsettled apparent volume (V0) to the nearest milliliter. Carry out 10, 500 and 1250 taps and read the corresponding volumes V10, V500, V1250, to the nearest milliliter. […]
Alternatively, if it is not possible to select 100.0 g, select a test sample of any mass but with a volume between 50 ml and 250 ml, measure its apparent volume, V0 as described above, and weigh the sample and specify the mass in the expression of results. Bulk/apparent density may then be determined in g/ml using the following formula: […]
Tapped apparent density may then be determined in g/ml using the following formula: […]

Row | SMILES | bulk density
1 | Cc1c(Cl)c(C)[n+]([O-])c(Cl)c1-c1noc(-c2cc(O)c(O)c([N+](=O)[O-])c2)n1 [2,5-dichloro-3-(5-(3,4-dihydroxy-5-nitrophenyl)-1,2,4-oxadiazol-3-yl)-4,6-dimethylpyridine 1-oxide] | less than 0.1 g/ml
2 | Cc1nc(Cl)c(-c2noc(-c3cc(O)c(O)c([N+](=O)[O-])c3)n2)c(C)c1Cl [5-[3-(2,5-dichloro-4,6-dimethylpyridin-3-yl)-[1,2,4]oxadiazol-5-yl]-3-nitrobenzene-1,2-diol] | around 0.2 g/ml
